# From BindingDB's records for doi:10.1021/jm00018a023 (Upjohn, 1995)
# pKi: −log10 of the molar value.
# Target: T1, Dimer of Gag-Pol polyprotein [489-587] (Human immunodeficiency virus 1, UniProt P12497)
# T1 construct: 489-587
# Test: Protease Inhibition Assay
# Conditions: pH 5; 22 °C
# Description: HIV-1 protease was purified and refolded from E. coli inclusion bodies. The substrate used spans the p17-p24 processing site (R-V-S-Q-N-Y-P-I-V-Q-N-K) and was derivatized with biotin and fluorescein isothiocyanate (FITC) at the amino and carboxy termini. In the presence of HIV-l protease, the substrate is rapidly cleaved into two parts. The biotinylated amino terminal fragment binds to the avidin beads while the FITC-containing carboxy1 terminal fragment is removed through the membrane. […] The bound fluorescence is obtained by processing on an IDEXX Screen Machine. Determination of Ki values with this assay requires analysis under conditions in which substrate concentration resides substantially below Km and the inhibitor concentrations greatly exceeds the Ki value and the enzyme concentration.
row,SMILES,pKi
1,CC(C)(C)OC(=O)NCCC(=O)Nc1cccc(C(c2c(O)c3ccccc3oc2=O)C2CC2)c1 (centres undefined) [tert-butyl N-[2-({3-[cyclopropyl(4-hydroxy-2-oxo-2H-chromen-3-yl)methyl]phenyl}carbamoyl)ethyl]carbamate],7.07
2,CCC(c1cccc(NC(=O)CCNC(=O)OC(C)(C)C)c1)c1c(O)c2ccc(OC)cc2oc1=O (centres undefined) [4-Hydroxy-3-[1-3-[[3-[(tert-butyloxycarbonyl)amino]-1-oxopropyl]amino]phenyl]propyl]-7-methoxycoumarin],6.77
3,CCC(c1cccc(C(=O)N[C@H](C(=O)NCc2ccccn2)C(C)CC)c1)c1c(O)c2ccccc2oc1=O (some centres undefined) [3-[1-(4-Hydroxy-2-oxo-2H-1-benzopyran-3-yl)propyl]-N-[2-methyl-1-[[(2-pyridinylmethyl)amino]carbonyl]butyl]benzamide],6.40
4,"CCC(c1cccc(C(=O)NCc2nc3ccccc3[nH]2)c1)c1c(O)c2ccccc2oc1=O (centres undefined) [N-(1H-1,3-benzodiazol-2-ylmethyl)-3-[1-(4-hydroxy-2-oxo-2H-chromen-3-yl)propyl]benzamide]",5.36
